Experimental data reported in patent US11974988B2, “Neuroprotective compositions and methods of using the same” (The Board of Supervisors of Louisiana State Univer …, priority 2018, dated 2024).
“Also recorded” adds a separate entry of the source. Read-outs that look alike come from different tables or passages of the source.

Tests used:
[1] = SKA-41 concentrations in plasma and brain by LC/MS after i.p. injection; type: in vivo; settings: rat; for concentration at 1 h: male, intraperitoneal, 10 mg/kg i.p., n=3 rats
Description: Twelve week-old male Sprague-Dawley rats were purchased from Charles River Laboratories (Wilmington, Mass.) and housed in microisolator cages with rodent chow and autoclaved water ad libitum. All experiments were in accordance with National Institutes of Health guidelines and approved by the University of California, Davis Institutional Animal Care and Use Committee.
SKA-41 is dissolved in Miglyol 812 neutral oil (caprylic/capric triglyceride; Trade name Neobee M5, Spectrum Chemicals, Gardena, Calif., USA) at 1 mg/mL and injected intraperitoneally at 10 mg/kg. After 1 hour, rats (n=3) are subjected to cardiac puncture under deep isoflurane anesthesia and then sacrificed before removing the brain. Blood is collected into EDTA blood sample collection tubes. Plasma is separated by centrifugation and samples stored at −80° C. pending analysis.
Commercial SPE cartridges (Hypersep C18, 100 mg, 1 mL) are purchased from Thermo Scientific (Houston, Tex., U.S.A). Before the extraction, cartridges are conditioned with acetonitrile, 2×1 mL, followed by water 2×1 mL. After loading the SPE cartridges with plasma samples, they are washed with 2×1 mL of 20% acetonitrile in water followed by elution with a 2×1 mL of acetonitrile. Elute fractions are collected and evaporated to dryness. The residues are reconstituted to solution using appropriate volume of acetonitrile and used for LC-MS analysis.
Brain samples are treated as following: 4.0 mL of acetonitrile is added to 200 mg of tissue sample and homogenized thoroughly using a T25 digital ULTRA-TURRAX® homogenizer (IKA® Works Inc., NC, USA). The homogenized samples are centrifuged for 10 min at 4000 rpm, the supernatant is separated and evaporated under a constant air flow as described above. The residues are reconstituted using appropriate volume of acetonitrile. The reconstituted material is loaded onto the preconditioned SPE cartridges it is then eluted with 2 mL of acetonitrile. Load and elute fractions are collected and evaporated to dryness. The residues are reconstituted to solution with 200 μL acetonitrile and used for LC-MS analysis. […]
Using Heated electrospray ionization source (HESI II) in positive ion mode, capillary temperature 300° C., vaporizer temperature: 250° C., spray voltage 3000 V, sheath gas pressure (N2) 30 units, auxiliary gas pressure (N2) 5 units, ion sweep gas pressure (N2) 1 unit, SKA-41 was analyzed by the selective reaction monitoring (SRM) transition of its molecular ion peak 261.0 (M+1)^+ into 175.0 and 133.0 m/z. An 8-point calibration curve spanning a concentration range from 50 nM to 10 μM range was developed for quantification.

[2] = system: activity-regulated Gln/MeAIB transport (SNAT activity) in hippocampal neurons; assay: Activity-regulated (spontaneous, 4-AP- or K+-stimulated) [14C]-MeAIB transport in primary hippocampal neurons; type: cell-based, rat; set-up: block of transport activity: dose or concentration left out as unconfirmed

Q: For `Nc1nc(-c2ccc(OC(F)(F)F)cc2)cs1` [SKA-41, 4-(4-(Trifluoromethoxy)phenyl)thiazol-2-amine], which Kp at 1 h ([1]; Sprague-Dawley, brain/plasma, ip, 10 mg/kg i.p. in Miglyol 812, 1 h, 3 male rats, read-out: brain/plasma ratio) is on record?
A: Its Kp at 1 h is roughly 7.

Q: And the concentration at 1 h ([1]; Sprague-Dawley, brain, read-out: brain concentration, average)?
A: Its concentration at 1 h is 12.6 µM.

Q: What about the concentration at 1 h ([1]; Sprague-Dawley, plasma, read-out: plasma concentration, average) of the same compound?
A: Its concentration at 1 h is 1.77 µM.

Q: What about the “brain penetration (brain/plasma ratio) relative to riluzole” value ([1]; in vivo) of the same compound?
A: Its value is “seven times higher”.

Q: And the “block of transport activity” value [2]?
A: The value was roughly 90%.

Q: What about the inhibition at 10 µM ([2]; Rattus norvegicus, Hippocampal neuron, at 10 μM, read-out: block / inhibition of transport activity) of the same compound?
A: Its inhibition at 10 µM is roughly 90%.

Q: And the IC50 ([2]; Rattus norvegicus, Hippocampal neuron, hippocampal neurons in vitro, 14C-MeAIB 20 μM, read-out: IC50 to inhibit activity-regulated Gln/MeAIB transport)?
A: Its IC50 is roughly 2 µM.

Q: What about the “Active (annotation beside the compound name: active vs inactive derivatives)” value ([2]; Table 1: SKA-41, and active and inactive derivatives) of the same compound?
A: The value was “SKA-41 Active CAS no. 436151-95-0 (Oakwood Chemical)”.

Q: What about the “inhibition of spontaneous activity-regulated 14C-MeAIB transport, in words” value ([2]; screens, 10 μM, GABA 2 mM) of the same compound?
A: The value was “active; also recorded: blocked spontaneous transport activity; also recorded: inhibited spontaneous transport activity”.
